This is an account of results in US8609836B2, “4-aryl-2-anilino-pyrimidines” (Janssen Pharmaceutica NV, priority 2008, dated 2013).

The test system of one assay is HCT-116. The assay can be described thus: Cellular proliferation assay (Alamar blue), HCT-116. The following applies: Homo sapiens, 10% FCS, 72 hours with compound, Alamar blue 4 h. The class given is cell-based. Put shortly: (§1)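 24 h seeding without compound, 10% FCS, 37° C/5% CO2; 72 h compound; Alamar blue (resazurin 9 μg/ml, ferro-/ferricyanide 90 μM) 4 h HCT-116, 6 h U87-MG, 24 h A2780/MDA-MB-231; fluorescence 544/590 nm vs control cells.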
(Resazurin is reduced to fluorescent resorufin, in cell work by metabolically active cells.)

A further assay deals with H1299. The assay can be described thus: Cellular proliferation assay (Alamar blue), H1299. The class given is cell-based. The following applies: Homo sapiens, NCI-H1299; 10% FCS; 72 hours with compound; Alamar blue 4 h. The gist of the method: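 This proliferation assay on NCI-H1299 cells used an initial 24-hour compound-free incubation after seeding, followed by 72 hours of compound treatment with 10% FCS serum at 37° C. and 5% (v/v) CO2. Viable cells were quantified by a 4 h Alamar blue incubation and fluorescent plate reading at 544 nm/590 nm, and effects were expressed relative to control cells.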

The test system of another assay is A2780. Briefly: Cellular proliferation assay (Alamar blue), A2780. Particulars: Homo sapiens, 10% FCS, 72 hours with compound, Alamar blue 24 h, read-out: A2780 (cellular proliferation assay, Table 4) (converted). The class given is cell-based. Put shortly:
as §1

For another assay, the target named is CDK1/CyclinB (h) (Homo sapiens, UniProt P06493). The assay can be described thus: CDK1/CyclinB human kinase inhibition, Invitrogen's FRET assay (Z'lyte). The format is biochemical. The following applies: read-out: CDK1 pIC50 (converted). The gist of the method: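 Z'lyte FRET assay: human CDK1/CyclinB (0.2 μg/ml) with 2 μM Ser/Thr peptide 12 and 10 μM ATP in 50 mM Hepes pH 7.5, MgCl2, EGTA, Brij-35, 60 min at room temperature. Protease development 60 min, then emission ratio 460/538 nm read with excitation at 390 nm.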

The target in a further assay is AuroraB (h) (Homo sapiens, UniProt Q96GD4). The assay can be described thus: Aurora-B human kinase inhibition, SPA. The class given is biochemical. Particulars: read-out: AuroraB pIC50 (converted). Put shortly: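 SPA with biotinylated peptide (3 μM) in 60 mM Hepes pH 7.5, Mg/Mn 3 mM each, 0.5 μM ATP plus [γ-33P]ATP, AuroraB at 0.5 μg/ml. The reaction runs 60 min at room temperature and is stopped with EDTA and streptavidin PVT beads. 33P-substrate is read by scintillation imaging.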

For the next assay, the target named is PLK4 (h) (Homo sapiens, UniProt O00444). The assay can be described thus: PLK-4 human kinase inhibition, scintillation proximity assay (SPA). The format is biochemical. The following applies: read-out: PLK4 pIC50 (converted). A general note: SPA uses beads or plates that emit light when radiolabelled molecules are held near them.
The next assay concerns the target GSK3β (h) (Homo sapiens, UniProt P49841). Briefly: GSK-3β human kinase inhibition, SPA. The class given is biochemical. The following applies: read-out: GSK3b pIC50 (converted). The gist of the method: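 Scintillation proximity assay: GSK3β (1 μg/ml) with 1 μM biotinylated peptide, 1 μM ATP plus [γ-33P]ATP in Tris pH 7.4, MgCl2, DTT. 60 min at room temperature, stopped with EDTA and streptavidin PVT beads; phosphorylation read by Leadseeker imaging.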

In another assay the test system is U87-MG. The assay can be described thus: Cellular proliferation assay (Alamar blue), U87-MG. The format is cell-based. Particulars: Homo sapiens, U-87 MG; 10% FCS; 72 hours with compound; Alamar blue 6 h; read-out: U87-MG (cellular proliferation assay, Table 4) (converted). Put shortly: as §1
The target in another assay is PLK3 (h) (Homo sapiens, UniProt Q9H4B4). Briefly: PLK3 human kinase inhibition, SPA. The class given is biochemical. Particulars: read-out: PLK3 pIC50 (converted). The gist of the method: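 SPA: PLK3 (h) at 30 μg/ml with 2 μM biotinylated peptide, 0.1 μM ATP plus 2 nM [γ-33P]ATP in 50 mM Hepes pH 8.0, 2 mM MnCl2 and 1 mM DTT. Incubated 20 min at room temperature, then stopped with EDTA and streptavidin PVT beads. Scintillation imaged on Leadseeker.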
Chain of PLK3 (h) (Q9H4B4 whole entry): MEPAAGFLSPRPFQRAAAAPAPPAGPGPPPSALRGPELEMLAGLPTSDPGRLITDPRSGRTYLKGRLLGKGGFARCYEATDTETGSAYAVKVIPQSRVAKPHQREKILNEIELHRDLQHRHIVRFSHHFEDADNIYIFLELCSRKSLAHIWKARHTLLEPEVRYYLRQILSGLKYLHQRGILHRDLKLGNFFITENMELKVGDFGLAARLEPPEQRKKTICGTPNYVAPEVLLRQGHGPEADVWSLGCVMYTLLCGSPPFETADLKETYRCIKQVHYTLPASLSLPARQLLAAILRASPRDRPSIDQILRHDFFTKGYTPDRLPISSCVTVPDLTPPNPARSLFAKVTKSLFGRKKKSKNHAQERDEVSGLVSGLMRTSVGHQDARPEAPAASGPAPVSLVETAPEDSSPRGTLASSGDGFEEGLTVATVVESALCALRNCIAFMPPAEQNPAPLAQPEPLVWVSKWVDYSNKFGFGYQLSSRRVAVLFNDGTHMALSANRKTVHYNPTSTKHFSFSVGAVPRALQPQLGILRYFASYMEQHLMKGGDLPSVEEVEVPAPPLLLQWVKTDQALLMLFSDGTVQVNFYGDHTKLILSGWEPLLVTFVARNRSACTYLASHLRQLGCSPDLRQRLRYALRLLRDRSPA

Chain of GSK3β (h) (P49841 whole entry): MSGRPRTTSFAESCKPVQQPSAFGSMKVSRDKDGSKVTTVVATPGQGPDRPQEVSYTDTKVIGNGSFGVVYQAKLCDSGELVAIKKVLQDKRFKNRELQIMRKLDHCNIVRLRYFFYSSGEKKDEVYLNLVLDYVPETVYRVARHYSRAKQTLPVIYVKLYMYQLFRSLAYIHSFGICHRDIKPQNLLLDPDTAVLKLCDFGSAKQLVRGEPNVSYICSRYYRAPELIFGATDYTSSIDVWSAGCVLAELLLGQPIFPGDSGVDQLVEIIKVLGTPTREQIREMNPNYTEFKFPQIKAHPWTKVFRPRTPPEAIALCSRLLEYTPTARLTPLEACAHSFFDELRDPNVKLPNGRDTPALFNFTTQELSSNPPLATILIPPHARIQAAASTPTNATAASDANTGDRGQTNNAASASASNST
Chain of AuroraB (h) (Q96GD4 whole entry): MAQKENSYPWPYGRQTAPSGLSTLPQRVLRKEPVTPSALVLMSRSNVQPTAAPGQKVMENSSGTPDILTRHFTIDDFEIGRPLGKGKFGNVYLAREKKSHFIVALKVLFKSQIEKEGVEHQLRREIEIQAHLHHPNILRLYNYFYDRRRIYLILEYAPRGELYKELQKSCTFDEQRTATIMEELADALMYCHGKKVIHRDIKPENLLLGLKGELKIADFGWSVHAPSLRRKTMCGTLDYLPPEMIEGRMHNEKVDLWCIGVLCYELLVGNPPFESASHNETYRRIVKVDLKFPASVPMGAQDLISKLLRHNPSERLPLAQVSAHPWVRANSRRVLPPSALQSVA
Chain of PLK4 (h) (O00444 whole entry): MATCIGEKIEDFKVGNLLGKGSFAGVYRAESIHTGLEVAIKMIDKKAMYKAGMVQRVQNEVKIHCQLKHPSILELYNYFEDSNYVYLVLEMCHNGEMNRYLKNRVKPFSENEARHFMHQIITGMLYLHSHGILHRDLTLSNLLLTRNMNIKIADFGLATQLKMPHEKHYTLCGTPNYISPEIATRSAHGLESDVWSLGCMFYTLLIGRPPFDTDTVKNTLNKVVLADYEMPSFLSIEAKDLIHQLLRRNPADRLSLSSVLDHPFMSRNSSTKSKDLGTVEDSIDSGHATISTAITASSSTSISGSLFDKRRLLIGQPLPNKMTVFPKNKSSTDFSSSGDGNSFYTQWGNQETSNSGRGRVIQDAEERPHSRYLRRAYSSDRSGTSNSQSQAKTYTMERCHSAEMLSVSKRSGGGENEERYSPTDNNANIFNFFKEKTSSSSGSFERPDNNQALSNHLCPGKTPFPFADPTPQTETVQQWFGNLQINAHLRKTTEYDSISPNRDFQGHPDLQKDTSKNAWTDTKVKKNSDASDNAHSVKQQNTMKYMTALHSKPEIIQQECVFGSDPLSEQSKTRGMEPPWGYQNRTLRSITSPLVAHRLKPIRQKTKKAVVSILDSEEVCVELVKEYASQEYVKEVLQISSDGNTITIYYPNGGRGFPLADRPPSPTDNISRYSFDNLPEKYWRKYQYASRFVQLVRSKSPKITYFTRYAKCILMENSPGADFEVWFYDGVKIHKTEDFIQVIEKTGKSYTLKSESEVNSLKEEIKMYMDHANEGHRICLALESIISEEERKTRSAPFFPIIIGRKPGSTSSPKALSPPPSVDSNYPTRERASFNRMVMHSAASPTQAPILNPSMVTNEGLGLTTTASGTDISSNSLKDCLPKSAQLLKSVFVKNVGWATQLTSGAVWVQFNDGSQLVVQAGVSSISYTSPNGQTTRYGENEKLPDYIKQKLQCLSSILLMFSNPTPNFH
Chain of CDK1/CyclinB (h) (P06493 whole entry): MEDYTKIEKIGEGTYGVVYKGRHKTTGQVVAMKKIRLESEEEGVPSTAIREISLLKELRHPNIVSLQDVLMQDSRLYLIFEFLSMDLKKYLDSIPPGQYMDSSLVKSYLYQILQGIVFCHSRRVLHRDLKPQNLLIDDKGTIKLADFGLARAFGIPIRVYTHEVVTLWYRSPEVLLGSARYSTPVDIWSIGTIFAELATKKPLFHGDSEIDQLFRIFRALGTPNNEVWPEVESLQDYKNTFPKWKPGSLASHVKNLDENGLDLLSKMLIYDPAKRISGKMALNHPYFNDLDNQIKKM
Chain of CDK1/CyclinB (h) (P14635 whole entry partner): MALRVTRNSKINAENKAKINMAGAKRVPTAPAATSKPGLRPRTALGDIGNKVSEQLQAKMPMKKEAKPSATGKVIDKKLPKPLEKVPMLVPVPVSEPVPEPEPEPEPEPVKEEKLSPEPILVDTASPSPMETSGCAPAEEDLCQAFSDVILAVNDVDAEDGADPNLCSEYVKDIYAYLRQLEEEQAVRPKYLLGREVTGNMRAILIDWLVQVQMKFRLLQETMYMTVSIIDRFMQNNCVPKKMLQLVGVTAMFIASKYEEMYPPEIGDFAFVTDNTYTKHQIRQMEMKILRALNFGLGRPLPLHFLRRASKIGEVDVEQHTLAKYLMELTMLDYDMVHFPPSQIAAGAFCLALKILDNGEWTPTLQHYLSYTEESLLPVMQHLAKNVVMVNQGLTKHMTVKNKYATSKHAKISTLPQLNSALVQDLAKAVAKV

Consider `O=C1NCc2cccc(c2)-c2ccnc(n2)Nc2ccc(N3CCOCC3)c(c2)CN2CCC[C@@H]12` [Compound 1], for which the IC50 is 3.8 µM in the assay on HCT-116; 6.92 µM in the assay with H1299; 2.34 µM in the assay with A2780; 4.17 µM on CDK1/CyclinB (h); 4.37 µM on AuroraB (h); 0.0479 µM on PLK4 (h). The results for the IC50 at GSK3β (h), with U87-MG and on PLK3 (h) were 0.724 µM, 6.76 µM and above 10 µM, respectively.

On to `O=C1CN2CCN(CC2)Cc2cccc(c2)Nc2nccc(n2)-c2ccnc(c2)CCCN1` [Compound 21], for which the IC50 was 2.29 µM in the assay with HCT-116; 7.59 µM with A2780; 0.105 µM on CDK1/CyclinB (h); above 10 µM on AuroraB (h); 4.27 µM on PLK4 (h); 0.0166 µM at GSK3β (h). Also, the IC50 was 2.82 µM with U87-MG and above 10 µM at PLK3 (h).

In the case of `COc1ccc2cc1CN(C)CCCNC(=O)C1CCN(CC1)Cc1cc(cc(N3CCOCC3)c1)Nc1nccc-2n1` [Compound 80], the IC50 was above 10 µM with HCT-116; above 10 µM in the assay with H1299; above 10 µM in the assay on A2780; above 10 µM at CDK1/CyclinB (h); above 10 µM on AuroraB (h); 5.37 µM at PLK4 (h). The IC50 at GSK3β (h), with U87-MG and at PLK3 (h) was above 10 µM throughout.

Regarding `CN(C)CCNCc1cc2cc(c1)Nc1nccc(n1)-c1cccc(c1)CNC(=O)[C@@H]1CCCN1C2` [Compound 31], the IC50 in the assay with HCT-116 was 1.02 µM; in the assay with H1299, 1.78 µM; with A2780 it was 5.01 µM; at CDK1/CyclinB (h), 0.933 µM; on AuroraB (h), above 10 µM; at PLK4 (h) it was 0.166 µM. Further, the values for the IC50 on GSK3β (h), in the assay with U87-MG and at PLK3 (h) were 0.11 µM, 2.24 µM and above 10 µM, respectively.

With `O=C1NCCCc2cc(ccn2)-c2ccnc(n2)Nc2cccc(c2)CN[C@H]1CO` [Compound 19], the IC50 with HCT-116 was 0.724 µM; with A2780, 1.45 µM; at CDK1/CyclinB (h) it was 0.0562 µM; at AuroraB (h), above 10 µM; at PLK4 (h), 1.2 µM; on GSK3β (h), 0.0372 µM. Moreover, the IC50 with U87-MG is 1.07 µM; at PLK3 (h) it was above 10 µM.

Regarding `CN1CCCNC(=O)[C@H](CO)NCc2cc(cc(N3CCOCC3)c2)Nc2nccc(n2)-c2ccc(cc2)C1` [Compound 10], the IC50 was above 10 µM in the assay with HCT-116; above 10 µM in the assay with H1299; above 10 µM in the assay with A2780; above 10 µM at CDK1/CyclinB (h); 9.33 µM at AuroraB (h); 0.513 µM on PLK4 (h). Also, the figures for the IC50 at GSK3β (h), in the assay on U87-MG and on PLK3 (h) were around 10 µM, above 10 µM and above 10 µM, respectively.

As to `O=C1NCCNc2cc(ccn2)-c2ccnc(n2)Nc2ccc(N3CCOCC3)c(c2)CN2CCC1CC2` [Compound 84], the IC50 with HCT-116 is above 10 µM; with H1299, above 10 µM; in the assay on A2780, above 10 µM; at CDK1/CyclinB (h), above 10 µM; on AuroraB (h), 7.08 µM; at PLK4 (h), 5.37 µM. Besides, the IC50 on GSK3β (h) is 1.55 µM; in the assay with U87-MG it was 9.33 µM; at PLK3 (h) it was above 10 µM.

With `COc1ccc2cc1CN(C)CCNC(=O)C1CCN(CC1)Cc1cccc(c1)Nc1nccc-2n1` [Compound 83], the IC50 in the assay on HCT-116, in the assay on H1299, in the assay with A2780, on CDK1/CyclinB (h), on AuroraB (h) and on PLK4 (h) was above 10 µM in each case. The IC50 at GSK3β (h), in the assay with U87-MG and at PLK3 (h) was above 10 µM each time.

On to `C[C@H]1NCc2cc(ccc2N2CCOCC2)Nc2nccc(n2)-c2cccc(c2)OCCCNC1=O` [Compound 87], for which the IC50 with HCT-116 is 3.8 µM; in the assay with H1299, above 10 µM; in the assay on A2780 it was 8.71 µM; on CDK1/CyclinB (h), 7.08 µM; on AuroraB (h) it was above 10 µM; on PLK4 (h), 0.407 µM. In addition, the figures for the IC50 at GSK3β (h), in the assay with U87-MG and on PLK3 (h) were 0.214 µM, 6.17 µM and above 10 µM, respectively.

Regarding `CN1CCNC(=O)C2CCN(CC2)Cc2cc(Br)cc(c2)Nc2nccc(n2)-c2ccc(cc2)C1` [Compound 60], the IC50 was 1.58 µM in the assay with HCT-116; above 10 µM with H1299; 7.59 µM with A2780; above 10 µM at CDK1/CyclinB (h); 6.31 µM on AuroraB (h); 0.537 µM at PLK4 (h). Further, the results for the IC50 at GSK3β (h), in the assay on U87-MG and on PLK3 (h) were 2.75 µM, 2.57 µM and above 10 µM, respectively.

Turning to `COc1ccc2cc1CNCCNC(=O)[C@@H]1CCCN1Cc1cc(ccc1N1CCOCC1)Nc1nccc-2n1` [Compound 178], the IC50 in the assay on HCT-116, in the assay on H1299, in the assay with A2780, on CDK1/CyclinB (h), on AuroraB (h) and on PLK4 (h) was above 10 µM each time. Also, the figures for the IC50 on GSK3β (h), with U87-MG and on PLK3 (h) were above 10 µM, 8.91 µM and above 10 µM, respectively.

`O=C1NCc2cccc(c2)-c2ccnc(n2)Nc2cc(CN3CCOCC3)cc(c2)CN2CCC[C@@H]12` [Compound 22]: the IC50 was 0.174 µM in the assay on HCT-116; 2.75 µM with H1299; 0.437 µM in the assay on A2780; 0.251 µM on CDK1/CyclinB (h); 10.2 µM at AuroraB (h); 0.0692 µM at PLK4 (h). Also, the IC50 on GSK3β (h) is 0.0309 µM; in the assay on U87-MG it was 0.234 µM; on PLK3 (h) it was above 10 µM.

For `COc1ccc2cc1CN(C)CCNC(=O)CN1CCN(CC1)Cc1cc(cc(N3CCOCC3)c1)Nc1nccc-2n1` [Compound 145], the IC50 is above 10 µM in the assay on HCT-116; above 10 µM in the assay on H1299; above 10 µM in the assay on A2780; above 10 µM on CDK1/CyclinB (h); above 10 µM at AuroraB (h); 4.37 µM on PLK4 (h). Besides, the IC50 on GSK3β (h), in the assay on U87-MG and at PLK3 (h) was above 10 µM in each case.

Take `COc1ccc2cc1CN(C)CCCNC(=O)C1CCN(CC1)Cc1cc(cc(NC(C)C)c1)Nc1nccc-2n1` [Compound 70]: the IC50 was above 10 µM in the assay with HCT-116; above 10 µM with H1299; above 10 µM in the assay with A2780; above 10 µM on CDK1/CyclinB (h); 6.03 µM on AuroraB (h); 1.58 µM on PLK4 (h). Further, the IC50 on GSK3β (h) is above 10 µM; with U87-MG, 9.12 µM; on PLK3 (h), above 10 µM.

Consider `COc1ccc2cc1CN(C)CCCNC(=O)CN1CCN(CC1)Cc1cccc(c1)Nc1nccc-2n1` [Compound 146], for which the IC50 in the assay on HCT-116 is above 10 µM; in the assay on H1299 it was above 10 µM; in the assay with A2780, above 10 µM; on CDK1/CyclinB (h) it was above 10 µM; on AuroraB (h), above 10 µM; on PLK4 (h), 6.76 µM. Moreover, the IC50 at GSK3β (h), with U87-MG and on PLK3 (h) was above 10 µM each time.

With `COc1ccc2cc1CNCCNC(=O)CN1CCN(CC1)Cc1cc(ccc1N1CCOCC1)Nc1nccc-2n1` [Compound 126], the IC50 was 8.71 µM in the assay with HCT-116; above 10 µM in the assay on H1299; 5.37 µM with A2780; above 10 µM at CDK1/CyclinB (h); 8.71 µM at AuroraB (h); 0.813 µM on PLK4 (h). For the same compound, the IC50 at GSK3β (h), with U87-MG and at PLK3 (h) was above 10 µM each time.
